Assay results from patent US20060009433A1, “Neuroprotective spirostenol pharmaceutical compositions” (priority 2003, published 2006).

Tests used:
rat PC12 cells = test: Trypan blue dye exclusion assay, PC12 cells (Example I); type: cell-based; conditions: 100 μM steroid, 72 hours
Procedure: (§1) Rat PC12 cells were cultured as previously described. Yao et al., Brain Res. 889, 181-190 (2001). Human NT2 precursor (Ntera2/D1 teratocarcinoma) cells were obtained from Stratagene (La Jolla, Calif.) and cultured following the instructions of the supplier. Differentiated human NT2 neurons (NT2N) were obtained after treatment of the NT2 precursor cells with retinoic acid. Andrews, Dev. […] Aβ was dissolved in media and used either in the aggregated (left overnight at 4° C.) or soluble (containing oligomers such as dimers and tetramers) forms examined by electrophoresis as previously described. Yao et al., Brain Res. (2001). […] Id. Cell viability was measured using the trypan blue exclusion method as previously described. Id. In brief, for these studies, cells were treated for 72 hours with steroids in the presence or absence of increasing concentrations of Aβ. At the end of the incubation, the cells were washed three times with PBS and incubated for 15 minutes with 0.1% trypan blue stain solution at room temperature. After washing three times with PBS, 0.1 N NaOH was added to the cells and trypan blue staining was quantified using the Victor quantitative detection spectrophotometer (EGG-Wallac, Gaithersburg, Md.) at 450 nm. Cell protein levels were determined in the same samples by the method of Bradford (Bradford, Anal. Biochem., 72, 248-254 (1976)), where coomassie blue staining is detected at 590 nm.
(§2) The results obtained from using MTT assay were further confirmed with the trypan blue dye exclusion assay. […] Levels of viability were measured using the trypan blue assay as described under Materials and Methods. Results are expressed as fold trypan blue stained cells per total cell protein over control untreated cells. Results shown are means±SD (n=6-12).

Aβ = target: T1, Aβ (Homo sapiens, UniProt P05067); test: CPBBA displacement of radiolabeled 22R-hydroxycholesterol from Aβ (Example II); type: binding; conditions: 100 μM unlabeled compound; 50 μM Aβ
T1 construct: Aβ1-42 peptide was purchased from American Peptide Co; purchased American Peptide Co. (Sunnyvale, Calif.)
Procedure: At the end of the incubation time, samples were separated by 1.5% agarose (Type I-B) gel electrophoresis under native conditions and transferred to nitrocellulose membrane (Schleicher&Schuell, Keene, N.H.) in 10×SSC buffer. The membrane was exposed to tritium-sensitive screen and analyzed by phosphoimaging using the Cyclone Storage phosphor system (Packard BioScience). Image-densitometric analysis was performed using the OptiQuant software (Packard BioScience). […] Low molecular weight unincorporated 22R-hydroxycholesterol and derivatives are separated and eliminated during electrophoresis.

human NT2 cells = test: Trypan blue dye exclusion assay, NT2 cells; type: cell-based; conditions: 25 μM steroid, 72 hours
Procedure: as §1, §2

NT2 cells = test: Expression of GFRα receptor proteins in NT2 cells (immunoblot); type: cell-based, human; conditions: 25 μM; 6 days
Procedure: Cells were fixed with newly prepared 3.7% formaldehyde for 15 minutes and blocked by blocking reagent (Zymed Laboratories, San Francisco, Calif., USA). Inuunostaining was performed using rabbit anti-NF200, anti-NF145 and anti-NF70 (all at 1:200), and goat anti-GFRα1, anti-GFRα2 and anti-GFRα3 (all at 1:100); Santa Cruz Biotechnology (Santa Cruz, Calif., USA). All antibodies were used at 200 μg/ml. After overnight incubation at 4° C., the immunoreactivity was detected using horseradish peroxidase-conjugated anti-rabbit or anti-mouse IgG for 1 hour at room temperature and visualized using AEC.
Cells were then washed with phosphate-buffered saline (PBS) and lysed with loading buffer. Proteins were resolved by sodium dodecyl sulfate polyacrylamide gel electrophoresis (SDS-PAGE) on 4-20% gradient acrylamide-bis-acrylamide gel at 125 V for 2 hours and electrotransferred onto nitrocellulose membranes. After blocking with 5% nonfat milk, the membranes were subjected to immunoblot analysis by incubation overnight with rabbit anti-NF200, anti-NF145 and anti-NF70 (all at 1:4000) (Chemicon International, Temecula, Calif., USA) and goat anti-GFRα1, anti-GFRα2 and anti-GFRα3 (all at 1:500) (200 μg/ml; Santa Cruz Biotechnology, Inc., Santa Cruz, Calif., USA), goat anti-rabbit or rabbit anti-goat IgG-horseradish peroxidase being used as the secondary antibody (1:5000) (Zymed Laboratories, San Francisco, Calif., USA). Protein bands were visualized using ECL reagents (Amersham Pharmacia Biotech, Piscataway, N.J., USA). Image-densitometric analyses of the immunoreactive protein bands were performed using OptiQuant-image analysis software (Packard BioScience, Meriden, Conn., USA). Glyceraldehyde-3-phosphate dehydrogenase (GAPPH) served as an internal standard.

Aβ25-35 = Aβ25-35 (Homo sapiens, UniProt P05067); test: CPBBA, Aβ25-35; type: binding
Procedure: (§3) At the end of the incubation time, samples were separated by 1.5% agarose (Type I-B) gel electrophoresis and transferred to nitrocellulose membrane (Schleicher & Schuell, Keene, N.H.) in 10×SSC buffer. The membrane was exposed to tritium-sensitive screen and analyzed by phosphoimaging using the Cyclone Storage phosphor system (Packard BioScience, Meridien, Conn.). Image-densitometric analysis was performed using the OptiQuant software (Packard). […] Low molecular weight unincorporated 22i-hydroxycholesterol is separated and eliminated during electrophoresis.

[1] = system: differentiated NT2N neuronal cells; test: MTT assay, viability of differentiated NT2N neuronal cells; type: cell-based, human
Source text: During CNS development in vivo, cells actively participate in two opposing processes: proliferation and death (Ross, Trends Neurosci., 19, 62 (1996)). In NT2 cells, early programmed cell death (apoptosis) has been associated with the induction of differentiation by RA, it occurs mainly in undifferentiated cells, and it coincides with first detection of the neuronal phenotye (NT2N), i.e., significant apoptotic cell death could be quantified during the third and fourth days of the RA treatment using annexin V labeling as a marker of apoptosis (Guillemain et al., J. Neurosci. Res., 71, 38 (2003)). […] Thus, apoptotic cell death of undifferentiated NT2 cells also occurred during 22R-hydroxycholesterol-induced differentiation.

Aβ17-40 = target: T2, Aβ17-40 (Homo sapiens, UniProt P05067); test: CPBBA, Aβ17-40; type: binding
T2 construct: purchased American Peptide Co. (Sunnyvale, Calif.)
Procedure: as §3

T2 sequence (P05067 688-711 limits assumed): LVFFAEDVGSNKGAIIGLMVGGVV
T1 sequence (P05067 672-713): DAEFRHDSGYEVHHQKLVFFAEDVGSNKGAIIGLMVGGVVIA

CC(C)CC[C@@H](O)[C@@H](C)[C@H]1CC[C@H]2[C@@H]3CC=C4C[C@@H](O)CC[C@]4(C)[C@H]3CC[C@]12C [SP222, 22R-hydroxycholesterol]
rescue from Aβ1-42-induced cell death (rat PC12 cells): rescued
rescue from Aβ25-35-induced cell death (rat PC12 cells): Neither 22R-hydroxycholesterol nor DHEA could rescue
displacement of radiolabeled 22R-hydroxycholesterol binding to Aβ (Aβ): 80%
rescue from Aβ1-42-induced cell death (human NT2 cells): rescued
rescue from Aβ25-35-induced cell death (human NT2 cells): Neither 22R-hydroxycholesterol nor DHEA could rescue
decrease of GFRα3 protein expression (NT2 cells): about 16%
expression of GFRα1 (NT2 cells): no significant effect
increase of GFRα2 protein expression over the control level (NT2 cells): 45%
binding to Aβ25-35 (Aβ25-35): did not bind
effect on viability of differentiated NT2N neuronal cells [1]: had no effect
binding to Aβ17-40 (Aβ17-40; CPBBA): binds
22R-hydroxycholesterol-binding site in Aβ (Aβ17-40; CPBBA with various Aβ synthetic peptides): amino acids 17-40 of Aβ
